We go through one substance from patent US20090181910A1, “METHOD OF PREVENTION AND ALLEVIATION OF TOXICITY BY MODULATION OF IRF3” (priority 2006, published 2009).

A short description of data set [1]: Survival following APAP treatment. The data set is classed as in vivo, mice. To be noted: for survival against APAP overdose: APAP 600 mg/kg. Here is the method:
FIG. 4: Percentage survival following APAP treatment with or without polyI:C. (A) Wildtype (n=8) fasted and were treated with 0.1% NaCl or polyI:C (100 μg) intravenous (i.v.) 24 hours prior to treatment with APAP (600 mg/kg) by intraperitoneal (i.p.) injection. (B) Wildtype and IRF3−/− (n=6-8) fasted and were treated with 0.1% NaCl or polyI:C (100 μg) intravenous (i.v.) 24 hours prior to treatment with APAP (600 mg/kg) by intraperitoneal (i.p.) injection. (C) Wildtype mice (n=6-8) fasted and were treated with 0.1% NaCl or polyI:C (100 μg) intravenous (i.v.) and PCN (75 mg/kg) intraperitoneal (i.p.) 24 hours prior to treatment with APAP (175 mg/kg) by intraperitoneal (i.p.) injection.
Age and sex matched 6-9 week old mice were used for all experiments. C57/B16 mice were obtained from Jackson Laboratory. IRF3^−/− mice were obtained from Dr. T. Taniguchi. For APAP hepatotoxicity analysis, mice fasted for […] and then administered Vehicle (0.1% NaCl) or APAP (175-600 mg/kg) by intraperitoneal injection (i.p.). For serum and histological studies, mice were sacrificed at 6-7 hours post injection and serum and liver samples were retrieved. For survival studies, mice were studied for up to 5 days. For polyI:C studies, mice were also treated with 0.1% NaCl or polyI:C (100 μg) intravenous (i.v.) 12-24 hours prior to APAP treatment. To study the effects of PCN on APAP treatment, mice were treated with PCN (75 mg/kg) or control (1% DMSO, corn oil) by intraperitoneal (i.p.) 12-24 hours prior to APAP treatment. To study the effects of ethanol (EtOH) on APAP treatment, mice were given 20% EtOH in water ad libidum for 5 days prior to APAP therapy. PolyI:C treatment for these experiments occurred at Day 3 and Day 5. Serum alanine aminotransferase (ALT) levels were determined using manufacturer's protocol (TECO Diagnostics). For H&E staining, liver samples were fixed in formalin for 48 hours. H&E stainings were done by UCLA Tissue Procurement Core Laboratory (TPCL).

The next data set relates to ZNF202. The data set can be described thus: BMM Q-PCR: ZNF202 mRNA. The data set is classed as cell-based, Murine. To be noted: polyI:C and LPS; data not shown.
For data set [2] the following is noted: Dolphin et al. 1987; cited from earlier work.
A short description of data set [3]: Serum ALT in APAP hepatotoxicity.
The subject of the next data set is RXRα. The data set can be described thus: Liver RNA Q-PCR, polyI:C/APAP-treated mice: RXRα. To be noted: single polyI:C 100 μg i.v. 24 h before APAP 350 mg/kg i.p.; wildtype vs IRF3−/− mice; FIG. 1A. The data set is classed as in vivo. As for the experimental part:
FIG. 1: PolyI:C repression of RXRα and cytochrome P450 family members involves IRF3. Wildtype or IRF3−/− mice (n=4) fasted and were treated with 0.1% NaCl or polyI:C (100 μg) intravenous (i.v.) 24 hours prior to treatment with APAP (350 mg/kg) by intraperitoneal (i.p.) injection. 6 hours post-APAP treatment liver samples were isolated. Liver RNA analyzed by Q-PCR for (A) RXRα (B) Cyp1A2 and (C) Cyp3A11.
Age and sex matched 6-9 week old mice were used for all experiments. C57/B16 mice were obtained from Jackson Laboratory. IRF3^−/− mice were obtained from Dr. T. Taniguchi. For APAP hepatotoxicity analysis, mice fasted for […] and then administered Vehicle (0.1% NaCl) or APAP (175-600 mg/kg) by intraperitoneal injection (i.p.). For serum and histological studies, mice were sacrificed at 6-7 hours post injection and serum and liver samples were retrieved. For survival studies, mice were studied for up to 5 days. For polyI:C studies, mice were also treated with 0.1% NaCl or polyI:C (100 μg) intravenous (i.v.) 12-24 hours prior to APAP treatment. […] Serum alanine aminotransferase (ALT) levels were determined using manufacturer's protocol (TECO Diagnostics). […]
For quantitative realtime PCR (Q-PCR), total RNA was isolated and cDNA synthesized according to manufacturer's protocol: Trizol (RNA) and Bio-Rad iScript (cDNA). […]

Regarding “polyinosinic:polycytidylic acid [polyI:C]”, the “survival against APAP overdose” value in data set [1] (IRF3 deficient mice, FIG. 4B) is “did not protect from APAP overdose”; in data set [1] (wildtype mice, polyI:C 100 μg i.v. 24 h prior, FIG. 4A), “extremely effective at preventing death from APAP overdose”. For the same substance, the “survival with APAP plus PCN” value in data set [1] (polyI:C 100 μg i.v. and PCN 75 mg/kg before APAP 175 mg/kg, FIG. 4C) is “prevents overdose from the combination of APAP and cytochrome P450 inducers such as PCN”. Also, in the data set on ZNF202, the “ZNF202 mRNA levels” value is recorded as “unaffected”. Besides, the “ASA metabolism after polyI:C treatment” value in data set [2] is given as “results in defective ASA metabolism”. The “prevention of ethanol-promoted APAP induction of serum ALT” value in data set [3] (20% EtOH 5 days, polyI:C Day 3 and Day 5, APAP 175 mg/kg, FIG. 2C) is on record as “effective at preventing ethanol from promoting APAP induction of serum ALT levels”. In data set [3] (polyI:C 100 μg i.v. and PCN 75 mg/kg 24 h before APAP 175 mg/kg, FIG. 2B), the “prevention of PCN/APAP induction of serum ALT” value is reported as “capable of preventing PCN/APAP induction of serum ALT levels”. Besides, in data set [3] (polyI:C 100 μg i.v. pretreatment, APAP 350 mg/kg, wildtype and IRF3-deficient mice, FIG. 2A), the “prevention of APAP-induced serum ALT increase” value is recorded as “effectively prevented such increase in serum ALT only when IRF3 was present”. Further, the “RXRα mRNA in liver” value in the data set with RXRα is given as “potent downregulation of RXRα mRNA in an IRF3 dependent manner”.
